# Columns and labels:
# proMMP9 = target: T1, proMMP9 (Rattus norvegicus, UniProt P50282); experiment: Activation of proMMP9 in rat synoviocyte cultures (Western blot); assay type: cell-based; settings: for Signal of 80 kD band (INT*mm^2): final 48 hrs, TNFα-stimulated, pAb-1246; for 80 kD active MMP9 form detected with mAb L51/82 / 80 kD active MMP9 detected with pAb-1246: 0.37-10 μM; for 80 kD active MMP9 form detected with mAb L51/82: FIG. 1A; for 80 kD active MMP9 detected with pAb-1246: FIG. 1B
# T1 construct: endogenous in cells; host or cells: primary synoviocytes from arthritic female Lewis rats
# Excerpt: A primary synoviocytes line was derived from the periarticular tissue of arthritic rats. Arthritis was induced in female Lewis rats following an i.p. administration of streptococcal cell wall peptidoglycan polysaccharides (J Exp Med 1977; 146:1585-1602). Rats with established arthritis were sacrificed, and hind-limbs were severed, immersed briefly in 70% ethanol, and placed in a sterile hood. The skin was removed and the inflamed tissue surrounding the tibia-tarsal joint was harvested using a scalpel. Tissue from six rats was pooled, minced to approximately 8 mm^3 pieces, and cultured in Dulbecco's Modified Eagle's Medium (DMEM) containing 15% fetal calf serum (FCS). In the following weeks, cells migrated out of the tissue piece, proliferated, and formed a monolayer of adherent cells. The synoviocytes were lifted from culture plates with 0.05% trypsin and passaged weekly at 1:4 ratios in DMEM containing 10% FCS. Synoviocytes were used at passage 9 to investigate the ability of Compound-α to inhibit the maturation of MMP9 to active form.
# Rat synoviocytes spontaneously expressed and activated MMP9 when cultured in collagen gels and stimulated with tumor necrosis factor-alpha (TNFα) (FIG. 1 and Table 3). Eight volumes of an ice-cold solution of 3.8 mg/mL rat tail collagen (Sigma Cat #C3867-1VL) were mixed with 1 volume of 1 M sodium bicarbonate and 1 volume of 10× Roswell Park Memorial Institute medium. The pH of the mixture was adjusted to pH 7 with 1 N sodium hydroxide and equal volumes of the pH-adjusted collagen solution were mixed with DMEM containing 0.8 million synoviocytes per mL. One half mL volumes were dispensed into Costar 24-well culture dishes and placed for one hr at 37° C. and 5% CO2, during which time the collagen solution formed a gel. Individual gels were dislodged into wells of 12-well Costar plates containing 1 mL/well of DMEM adjusted to contain 0.05% BSA and 100 ng/mL mouse TNFα (R&D Systems Cat #410-MT-010). […] After overnight culture at 37° C. and 5% CO2, wells were adjusted to contain an additional 0.5 mL of DMEM containing 0.05% BSA and Compound-α at 4× the final desired concentration (final culture volumes were 2 mL). The plates were cultured an additional 48 hrs, at which time 1 mL of conditioned media were harvested into fresh eppendorf tubes containing 40 μL/mL of a 50% slurry of gelatin-conjugated sepharose (GE Healthcare Cat #17-0956-01). Samples were rotated for 2 hrs at 4° C. before centrifugation 1 min×200 g. Supernatants were discarded. The gelatin-sepharose pellets were washed once with 1 mL of ice cold DMEM, resuspended in 50 μL of 2× reducing Leamli buffer and heated 5 min at 95° C. Fifteen μL of eluted proteins were resolved on 4-12% NuPAGE gels and transferred to 0.45 μm pore-sized nitrocellose blots. Next, blots were incubated in blocking buffer (5% milk in Tris-buffered saline containing 0.1% Tween-20) for 1 hr at RT and probed overnight (4° C.) with blocking buffer containing 1 μg/mL primary antibodies. Blots were next probed 1 hr at RT with 1/10,000 dilutions of goat anti-mouse IgG-HRP or goat anti-rabbit IgG-HRP (Santa Cruz) in blocking buffer and developed using SuperSignal® West Fempto Maximum Sensitivity Substrate. Chemiluminesence signal was analyzed using a ChemiDoc imaging system (BioRad Laboratories) and Quantity One® image software. Electrophoretic mobility was estimated based on the mobility of standards (Novex Sharp Pre-Stained Protein Standards P/N 57318).
# Mouse mAb-L51/82 (UC Davis/NIH NeuroMab Facility, Antibody Incorporated) was used to detect pro and processed forms of MMP9. Synoviocyte-conditioned media contained an approximately 80 kD form of MMP9 (FIG. 1A, lane 2). […] The 86 kD form was predominant in the presence of 10 μM Compound-α (FIG. 1A, lane 6). Lane 1 was loaded with a standard containing 3 ng of full-length rat proMMP9(1-708) (SEQ ID NO:11) and 3 ng of full-length rat proMMP9(1-708) (SEQ ID NO:11) converted to catalytic rat MMP9 by catalytic MMP3. […]
# [1] = system: female Lewis rats with SCW-induced arthritis; experiment: Efficacy in rats with SCW-induced arthritis (ankle thickness, clinical scores); assay type: in vivo, rat; settings: 5, 20, 50 mg/kg BID oral, Day 18-26
# Excerpt: A polyarthritis can be induced in female Lewis rats following i.p. administration of streptococcal cell wall (SCW) […] (PG-PS) (J Exp Med 1977; 146:1585-1602). The model has an acute phase (days 3-7) that is complement and neutrophil-dependent and that resolves. A chronic erosive phase begins at about day ten and is dependent on the development of specific T cell immunity to the PG-GS, which resists digestion and remains present in synovial macrophages for months. Like rheumatoid arthritis, SCW-induced arthritis is reduced by TNF inhibitors, and the dependence of SCW-induced arthritis on macrophages (Rheumatology; 2001; 40:978-987) and the strong association of rheumatoid arthritis severity with synovial-tissue macrophage counts (Ann Rheum Dis; 2005; 64:834-838) makes SCW-arthritis an attractive model for testing potential therapeutic agents. SCW PG-PS 10S (Beckton Dickinson Cat#210866) suspended in saline was vortexed for 30 seconds and sonicated for 3 min with a probe type sonicator prior to injection. […]
# To induce arthritis, Female Lewis (LEW/N) rats, 5-6 weeks of age (80-100 g) were injected (i.p.) with SCW PG-PS as described above. […] Each ankle was measured 3 times and averaged, and treatment groups were randomized based on ankle thickness (Table 6). […]
# T1 sequence (P50282 20-708 limits assumed): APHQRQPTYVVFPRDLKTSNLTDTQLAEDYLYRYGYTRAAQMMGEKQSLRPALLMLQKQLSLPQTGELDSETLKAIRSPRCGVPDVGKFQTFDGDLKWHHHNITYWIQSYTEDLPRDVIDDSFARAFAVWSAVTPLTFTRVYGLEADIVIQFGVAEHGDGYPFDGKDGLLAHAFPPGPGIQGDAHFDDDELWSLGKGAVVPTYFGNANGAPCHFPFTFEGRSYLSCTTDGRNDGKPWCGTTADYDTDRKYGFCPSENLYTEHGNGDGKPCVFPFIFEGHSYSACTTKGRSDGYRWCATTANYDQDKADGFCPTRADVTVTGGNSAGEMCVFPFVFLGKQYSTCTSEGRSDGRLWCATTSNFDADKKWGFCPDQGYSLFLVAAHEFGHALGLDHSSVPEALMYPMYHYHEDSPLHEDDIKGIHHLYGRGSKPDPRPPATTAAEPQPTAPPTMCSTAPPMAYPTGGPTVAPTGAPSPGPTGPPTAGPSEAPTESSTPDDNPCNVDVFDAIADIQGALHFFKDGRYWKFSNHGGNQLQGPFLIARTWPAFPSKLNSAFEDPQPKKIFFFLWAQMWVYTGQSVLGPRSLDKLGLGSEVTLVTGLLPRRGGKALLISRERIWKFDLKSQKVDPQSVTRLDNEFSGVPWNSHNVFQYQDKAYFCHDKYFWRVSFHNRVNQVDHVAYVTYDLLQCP
smiles,measurement,setting,value
"Cc1nc(C)c(-c2csc(Nc3cc(S(N)(=O)=O)ccc3OC(C)C)n2)s1 [Compound-α, 3-(2′,4′-Dimethyl-[4,5′]bithiazolyl-2-ylamino)-4-isopropoxy-benzenesulfonamide.HBr]",Signal of 80 kD band (INT*mm^2),proMMP9; 0.37 μM,74381 INT*mm^2
same,Signal of 80 kD band (INT*mm^2),proMMP9; 1.1 μM,45381 INT*mm^2
same,Signal of 80 kD band (INT*mm^2),proMMP9; 3.3 μM,11554 INT*mm^2
same,Signal of 80 kD band (INT*mm^2),proMMP9; 10 μM,2578 INT*mm^2
same,80 kD active MMP9 form detected with mAb L51/82,proMMP9,reduced in a dose dependent fashion
same,80 kD active MMP9 form detected with mAb L51/82,proMMP9; listed as Compound a,dose-dependent reduction in the appearance of the 80 kD active form of MMP9
same,80 kD active MMP9 detected with pAb-1246,proMMP9,dose-dependent reduction in active MMP9
same,80 kD active MMP9 detected with pAb-1246,proMMP9; listed as Compound α,dose-dependent reduction in the appearance of the 80 kD active form of MMP9
same,"Ankle thickness measurements, effect of treatment",[1],dose-dependent decrease in ankle thickness measurements
same,"Clinical score measurements, effect of treatment",[1],dose dependent decrease in clinical score measurements

# Source: US20120129897A1, “BIS HETEROARYL INHIBITORS OF PRO-MATRIX METALLOPROTEINASE ACTIVATION” (priority 2010, published 2012)
